Source: US7288567B2, “Inhibitors of histone deacetylase” (Methylgene Inc., priority 2000, dated 2007)
Counter-ions that a name gives are not always drawn. Like-named read-outs stand apart in the source and are kept apart here.

How the values were obtained:
[1] = biological target: T1, recombinant human HDAC-1 enzyme (rHDAC-1) (Homo sapiens, UniProt Q13547); test: Histone deacetylase inhibition, recombinant human HDAC-1; format: biochemical
T1 construct: made in house; host or cells: Baculovirus insect cell expression system
Description: (§1) The reaction was stopped by adding acetic acid (0.04 M, final concentration) and HCl (250 mM, final concentration). The mixture was extracted with ethyl acetate and the released [^3H]-acetic acid was quantified by scintillation counting. For inhibition studies, the enzyme was preincubated with compounds at 4° C. for 30 minutes prior to initiation of the enzymatic assay. IC50 values for HDAC enzyme inhibitors were determined by performing dose response curves with individual compounds and determining the concentration of inhibitor producing fifty percent of the maximal inhibition.

[2] = tested on: histone deacetylase enzyme in nuclear extracts from H446 cells (pooled HDACs); test: Histone deacetylase inhibition, H446 nuclear extracts (pooled HDACs); format: biochemical, human; conditions: for IC50: H446 nuclear extract, [3H]-acetylated histone substrate; for pooled HDACs percent inhibition: percent inhibition at 20 μM (footnote)
Description: HDAC inhibitors were screened against histone deacetylase enzyme in nuclear extracts prepared from the human small cell lung cancer cell line H446 (ATTC HTB-171) and against a cloned recombinant human HDAC-1 enzyme expressed and purified from a Baculovirus insect cell expression system.
as §1, with “For deacetylase assays, 20,000 cpm of the [^3H]-metabolically labeled acetylated histone substrate (M. Yoshida et al., J. Biol. Chem. 265(28): 17174-17179 (1990)) was incubated with 30 μg of H446 nuclear extract or an equivalent amount of the cloned recombinant hHDAC-1 for 10 minutes at 37° C. The reaction” for “The reaction”

[3] = cloned recombinant human HDAC-1, Baculovirus insect cell expression, read-out: rHDAC-1 IC50

T1 sequence (Q13547 whole entry): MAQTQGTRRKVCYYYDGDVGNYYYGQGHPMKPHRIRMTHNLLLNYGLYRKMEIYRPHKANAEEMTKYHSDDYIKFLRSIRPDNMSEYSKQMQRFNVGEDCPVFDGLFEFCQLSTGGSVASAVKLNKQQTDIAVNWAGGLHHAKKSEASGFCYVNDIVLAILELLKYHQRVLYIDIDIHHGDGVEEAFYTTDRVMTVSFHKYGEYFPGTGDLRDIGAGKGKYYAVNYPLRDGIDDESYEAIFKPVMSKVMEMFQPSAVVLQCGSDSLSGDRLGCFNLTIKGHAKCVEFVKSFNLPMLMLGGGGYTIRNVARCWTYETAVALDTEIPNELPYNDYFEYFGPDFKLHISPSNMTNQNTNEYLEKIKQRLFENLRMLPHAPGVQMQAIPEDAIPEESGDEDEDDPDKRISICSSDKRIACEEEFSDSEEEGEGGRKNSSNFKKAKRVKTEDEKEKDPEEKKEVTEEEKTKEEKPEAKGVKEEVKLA

SMILES	IC50 [1, 3] [µM]	other results
O=C(CCCCCCC(=NO)c1cc2ccccc2o1)NO (mixture of isomers) [Compound 98, N-Hydroxy-8-(E)-oximino-8-(2-benzofuryl)octanamide]	0.03	IC50 [2]: 40 nM
Nc1ccccc1NC(=O)CCCCCCC(=NO)c1ccc2ccccc2c1 (mixture of isomers) [Compound 106, N-(2-Aminophenyl)-8-(E)-oximino-8-(2-naphthyl)octanamide]	4	IC50 [2]: > 20000 nM
O=C(CCCCCC/C(=N\O)c1ccc(-c2ccccc2)cc1)NO [(E)-51h, N-Hydroxy-8-(E)-oximino-8-(4-biphenyl)octanamide]		pooled HDACs percent inhibition [2]: 99%
O=C(CCCCCC/C(=N/O)c1ccc(-c2ccccc2)cc1)NO [(Z)-51h, N-Hydroxy-8-(Z)-oximino-8-(4-biphenyl)octanamide]		pooled HDACs percent inhibition [2]: 75%
COc1ccc(C(C/C=C/C=C/C(=O)NO)OC)cc1 (stereo not drawn) [Compound 6, N-Hydroxy-7-methoxy-7-(4-methoxyphenyl)-2,4-heptadienamide]	0.25	IC50 [2]: 3000 nM
COC(C/C=C/C=C/C(=O)NO)c1ccccc1 (stereo not drawn) [Compound 12, N-Hydroxy-7-methoxy-7-phenyl-2,4-heptadienamide]		IC50 [2]: 9400 nM
COc1ccc(C(OC)C(C)(C)/C=C/C=C/C(=O)Nc2ccccc2N)cc1 (stereo not drawn) [Compound 27, N-(2-Aminophenyl)-6,6-dimethyl-7-methoxy-7-(4-methoxyphenyl)-2,4-heptadienamide]		IC50 [2]: > 100000 nM
COC(c1ccc(N(C)C)cc1)C(C)/C=C(C)/C=C/C(=O)NO (stereo not drawn) [Compound 33, N-Hydroxy-4,6-dimethyl-7-methoxy-7-[4-(N,N-dimethylamino)phenyl]-2,4-heptadienamide]		IC50 [2]: > 10000 nM
CC(/C=C/C(=O)NO)=C\C(C)Cc1ccc(N(C)C)cc1 (stereo not drawn) [Compound 38, N-Hydroxy-4,6-dimethyl-7-[4-(N,N-dimethylamino)phenyl]-2,4-heptadienamide]		IC50 [2]: > 20000 nM
O=C(CCCCCCC(=O)c1ccc(Br)cc1)NO [Compound 52d, N-hydroxy-7-(4-bromobenzoyl)heptanamide]		IC50 [2]: 50 nM
O=C(CCCCCCC(=O)c1cccs1)NO [Compound 52k, N-hydroxy-7-(2-thiophene)carbonylheptanamide]		IC50 [2]: 900 nM
CC(CCC(=O)NO)CC(C)C(=O)c1ccc(N(C)C)cc1 (stereo not drawn) [Compound 62, N-Hydroxy-4-Methyl-6-[4-(N,N-dimethylamino)benzoyl]heptanamide]		IC50 [2]: 1100 nM
O=C(CCCCCC/C(=N\O)c1ccc2ccccc2c1)NO [Compound 97, N-Hydroxy-8-(E)-oximino-8-(2-naphthyl)octanamide]		IC50 [2]: 30 nM
O=C(CCCCCCC(=O)c1ccc(N2CCCCC2)cc1)NO [Compound 138h, N-Hydroxy-7-[4-(1-piperidinyl)benzoyl]heptanamide]		IC50 [2]: 48 nM
O=C(CCCCCCC(=O)c1ccccn1)NO [Compound 141a2, N-Hydroxy-7-[(2-pyridyl)carbonyl]heptanamide]		pooled HDACs percent inhibition @ 1 μM ([2]; @ 1 μM): 12%@ 1 μM
CC(CCCCCC(=O)c1ccc2ccccc2c1)C(=O)NO (stereo not drawn) [Compound 175, N-Hydroxy-2-methyl-7-(2-naphthoyl)heptanamide]		IC50 [2]: 2500 nM

SMILES	IC50 [1, 3] [µM]	other results
CN(CCCCCC(=O)Nc1ccccc1N)Cc1ccc2ccccc2c1 [Compound 210, N-(2-Aminophenyl)-N-(2-naphthylmethyl-methylamino)hexanamide]	10	
CN(CCCCC(=O)NO)Cc1ccc2ccccc2c1 [Compound 213, N-Hydroxy-5-N-(2-naphthylmethyl-methylamino)pentanamide]	3	
CN(CCCCC(=O)NO)CCc1ccc2ccccc2c1 [Compound 216, N-Hydroxy-5-N-[2-(2-naphthylethyl)-methylamino]pentanamide]	0.3	
O=C(CCCCCN(Cc1ccc2ccccc2c1)C(=O)OCc1ccccc1)NO [Compound 220a, N-Hydroxy-6-N-(Benzyloxycarbonyl-2-naphthylmethylamino)hexanamide]	0.02	
O=C(CCCCCN(Cc1ccccc1)Cc1ccc2ccccc2c1)NO [Compound 220b, N-Hydroxy-6-N-(Benzyl-2-naphthylmethylamino)hexanamide]	0.1	
CC(C)(C)OC(=O)N(CCCCCC(=O)NO)Cc1ccc2ccccc2c1 [Compound 222, N-Hydroxy-6-N-(tert-butoxycarbonyl-2-naphthylmethylamino)hexanamide]	0.1	
O=C(CCCCCNCc1ccc2ccccc2c1)NO [Compound 223, N-Hydroxy-6-N-(2-naphthylmethylamino)hexanamide trifluoroacetate]		IC50 [1]: 2 µM
CC(C)(C)OC(=O)N(CCCCCC(=O)Nc1ccccc1N)Cc1ccc2ccccc2c1 [Compound 224, N-(2-Aminophenyl)-6-N-(tert-butoxycarbonyl-2-naphthylmethylamino)-hexanamide]	3	
O=C(CCCCSCC(=O)c1ccc2ccccc2c1)NO [Compound 226a, N-Hydroxy-5-(2-naphthoylmethylsulfanyl)pentanamide]	0.007	
O=C(CCCCSCC(=O)c1ccc(-c2ccccc2)cc1)NO [Compound 226b, N-Hydroxy-5-(4-biphenylcarbonylmethanesulfanyl)pentanamide]	0.006	
Nc1ccccc1NC(=O)CCCCSCC(=O)c1ccc2ccccc2c1 [Compound 227a, N-(2-Aminophenyl)-5-(2-naphthoylmethylsulfanyl)pentanamide]	3	
Nc1ccccc1NC(=O)CCCCSCC(=O)c1ccc(-c2ccccc2)cc1 [Compound 227b, N-(2-Aminophenyl)-5-(4-biphenylcarbonylmethanesulfanyl)pentanamide]	3	
Nc1ccccc1NC(=O)CCCCCCOc1ccc(-c2ccccc2)cc1 [Compound 234, N-(2-Aminophenyl)-7-(4-biphenyloxy)heptanamide]	1	
Nc1ccccc1NC(=O)CCCCCn1cnc2ccccc2c1=O [Compound 239a, N-(2-Aminophenyl)-6-[3-(4-oxo-4H-quinazolinyl)]hexanamide]		pooled HDACs percent inhibition [2]: 0%
Nc1ccccc1NC(=O)CCCCCN1Cc2ccccc2C1=O [Compound 248, N-(2-Aminophenyl)-6-[2-(1-oxo-1,3-dihydro-isoindolyl)]hexanamide]	4	
Nc1ccccc1NC(=O)CCCCCN1C(=O)c2cccc3cc(O)cc(c23)C1=O [Compound 251a, N-(2-Aminophenyl)-6-[2-(5-hydroxy-1,3-dioxo-1H,3H-benzo[de]isoquinolinyl)]hexanamide]		pooled HDACs percent inhibition [2]: 0%

More lines, main results first:

IC50 [1, 3] [µM]	SMILES	other results
1	O=C(CCCCS(=O)(=O)CC(=O)c1ccc2ccccc2c1)NO [Compound 229a, N-Hydroxy-5-(2-naphthoylmethylsulfonyl)pentanamide]	
0.04	O=C(CCCCS(=O)(=O)CC(=O)c1ccc(-c2ccccc2)cc1)NO [Compound 229b, N-Hydroxy-5-(4-biphenylcarbonylmethylsulfonyl)pentanamide]	
5	Nc1ccccc1NC(=O)CCCCS(=O)(=O)CC(=O)c1ccc2ccccc2c1 [Compound 230a, N-(2-Aminophenyl)-5-(2-naphthoylmethylsulfonyl)pentanamide]	
12	Nc1ccccc1NC(=O)CCCCS(=O)(=O)CC(=O)c1ccc(-c2ccccc2)cc1 [Compound 230b, N-(2-Aminophenyl)-5-(4-biphenylcarbonylmethylsulfonyl)pentanamide]	
99	Nc1ccccc1NC(=O)CCCCN1C(=O)c2ccccc2C1=O [Compound 243b, N-(2-Aminophenyl)-5-(N-phthaloyl)pentanamide]	
4	Nc1ccccc1NC(=O)CCCCCCN1C(=O)c2ccccc2C1=O [Compound 243c, N-(2-Aminophenyl)-7-(N-phthaloyl)heptanamide]	
12	Nc1ccccc1NC(=O)CCCCCN1C(=O)c2ccc([N+](=O)[O-])cc2C1=O [Compound 243e, N-(2-Aminophenyl)-6-(5-nitro-N-phthaloyl)hexanamide]	
3	Nc1ccccc1NC(=O)CCCCCN1C(=O)c2cc(Cl)c(Cl)cc2C1=O [Compound 243f, N-(2-Aminophenyl)-6-(5,6-dichloro-N-phthaloyl)hexanamide]	
3	Nc1ccccc1NC(=O)CCCCCN1C(=O)c2ccc(O)cc2C1=O [Compound 243g, N-(2-Aminophenyl)-6-(5-hydroxy-N-phthaloyl)hexanamide]	
3	Nc1ccccc1NC(=O)CCCCCN1C(=O)c2cc(O)c(CN3CCCCC3)cc2C1=O [Compound 243h, N-(2-Aminophenyl)-6-(5-hydroxy-6-(1-methylpiperidinyl)-N-phthaloyl)-hexanamide]	
5	Nc1ccccc1NC(=O)CCCCCN1C(=O)c2cccnc2C1=O [Compound 246a]	
14	Nc1ccccc1NC(=O)CCCCCN1C(=O)c2ccncc2C1=O [Compound 246b]	
1	Nc1ccccc1NC(=O)CCCCCN1C(=O)c2cccc3c(Br)ccc(c23)C1=O [Compound 251b, N-(2-Aminophenyl)-6-[2-(6-bromo-1,3-dioxo-1H,3H-benzo[de]isoquinolinyl)]-hexanamide]	
